Experimental findings from patent US20140228349A1, “5,7-SUBSTITUTED-IMIDAZO[1,2-C]PYRIMIDINES” (Array BioPharma Inc., priority 2011, published 2014) are described below.

Bounds are passed on as bounds.

Common to all, as to format: biochemical
The target in one test is T1, Human Tyk2 kinase domain (Homo sapiens, UniProt P29597).
T1 construct: comprising amino acids 886 to 1187; His10 (10 histidine residues) (C, cleaved yes); made in house
T1 sequence (P29597 886-1187): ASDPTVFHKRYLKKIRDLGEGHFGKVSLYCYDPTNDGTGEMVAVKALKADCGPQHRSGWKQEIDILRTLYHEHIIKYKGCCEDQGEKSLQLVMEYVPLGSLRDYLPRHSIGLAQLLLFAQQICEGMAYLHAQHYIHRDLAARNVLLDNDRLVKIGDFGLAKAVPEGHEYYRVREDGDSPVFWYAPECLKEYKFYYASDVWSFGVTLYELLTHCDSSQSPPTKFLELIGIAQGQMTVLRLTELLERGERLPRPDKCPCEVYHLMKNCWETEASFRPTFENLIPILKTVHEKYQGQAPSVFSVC
Nature of the test: Tyk2 Inhibition Assay (Omnia kinase fluorescence peptide substrate). The following applies: averaged IC50 ranges; 10 μM (Km app) or 1 mM ATP, 2 nM Tyk2. The method in brief: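 Phosphorylation of 8 μM Omnia Y12 peptide followed kinetically by Sox fluorescence, ex 360/em 485 nm, every 50 s for 45 min. Enzyme: 2 nM Tyk2 kinase domain (aa 886–1187, His tag removed); ATP at 10 μM (Km app) or 1 mM; buffer HEPES pH 7.4 with MgCl2, Triton X-100, DTT. 10-point curves up to 10 μM, IC50 from 4-parameter logistic fit.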

For the next test, the target named is T2, JAK1 (Homo sapiens, UniProt P23458).
T2 construct: purchased Invitrogen Corporation, Carlsbad, Calif; IVGN PV4775
Nature of the test: JAK1 Inhibition Assay (Omnia kinase fluorescence peptide substrate). Particulars: averaged IC50 ranges; 40 μM (Km app) or 1 mM ATP, 15 nM JAK1. In outline: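 15 nM JAK1, 8 μM Omnia Y12 peptide, 40 μM (Km app) or 1 mM ATP; 25 mM HEPES pH 7.4, 10 mM MgCl2, 2% DMSO. Fluorescence (ex 360/em 485 nm) read every 50 s over 45 min. IC50 by 4-parameter fit of percent of control, top dose 10 μM.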

Another test addresses T3, JAK2 (Homo sapiens, UniProt O60674).
T3 construct: purchased Invitrogen Corporation, Carlsbad, Calif; IVGN PV4288
Nature of the test: JAK2 Inhibition Assay (Omnia kinase fluorescence peptide substrate). Particulars: averaged IC50 ranges; 25 μM (Km app) or 1 mM ATP, 5 nM JAK2.

The target in the next test is T4, JAK3 (Homo sapiens, UniProt P52333).
T4 construct: purchased Invitrogen Corporation, Carlsbad, Calif; IVGN PV4080
T4 sequence (P52333 1-1124): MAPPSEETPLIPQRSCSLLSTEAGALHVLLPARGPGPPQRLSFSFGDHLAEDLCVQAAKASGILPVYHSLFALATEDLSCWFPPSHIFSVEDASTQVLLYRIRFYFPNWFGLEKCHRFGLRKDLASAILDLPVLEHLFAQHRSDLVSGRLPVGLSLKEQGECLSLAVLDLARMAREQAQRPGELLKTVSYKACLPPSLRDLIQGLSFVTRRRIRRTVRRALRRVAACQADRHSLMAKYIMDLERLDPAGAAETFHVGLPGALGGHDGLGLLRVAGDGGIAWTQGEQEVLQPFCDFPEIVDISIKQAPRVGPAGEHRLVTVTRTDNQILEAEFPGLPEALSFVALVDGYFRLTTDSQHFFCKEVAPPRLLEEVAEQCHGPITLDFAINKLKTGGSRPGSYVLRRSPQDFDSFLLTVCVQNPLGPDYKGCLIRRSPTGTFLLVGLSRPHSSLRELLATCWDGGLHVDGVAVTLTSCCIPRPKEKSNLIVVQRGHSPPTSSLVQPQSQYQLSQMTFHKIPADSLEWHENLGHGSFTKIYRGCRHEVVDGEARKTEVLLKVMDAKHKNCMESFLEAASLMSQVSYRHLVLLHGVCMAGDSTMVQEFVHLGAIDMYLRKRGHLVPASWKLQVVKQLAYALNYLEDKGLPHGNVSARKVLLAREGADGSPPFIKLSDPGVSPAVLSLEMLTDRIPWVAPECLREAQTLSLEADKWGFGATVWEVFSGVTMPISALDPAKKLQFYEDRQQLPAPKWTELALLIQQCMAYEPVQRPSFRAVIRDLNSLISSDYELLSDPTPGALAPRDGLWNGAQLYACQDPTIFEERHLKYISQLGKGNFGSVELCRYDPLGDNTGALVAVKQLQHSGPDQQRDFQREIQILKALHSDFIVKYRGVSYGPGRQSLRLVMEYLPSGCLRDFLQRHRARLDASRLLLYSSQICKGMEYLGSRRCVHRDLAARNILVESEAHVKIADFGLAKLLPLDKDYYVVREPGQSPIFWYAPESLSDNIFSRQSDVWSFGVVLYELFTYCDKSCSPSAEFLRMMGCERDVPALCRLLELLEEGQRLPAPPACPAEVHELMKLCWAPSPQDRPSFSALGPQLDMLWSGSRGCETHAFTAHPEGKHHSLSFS
Nature of the test: JAK3 Inhibition Assay (Omnia kinase fluorescence peptide substrate). Particulars: averaged IC50 ranges; 10 μM (Km app) or 1 mM ATP, 2.5 nM JAK3. In outline:
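IC50 is the concentration giving 50 percent of control on a 4-parameter logistic fit of 10-point, 3-fold dilutions from a 10 μM top dose, at 2% final DMSO. Kinetic Sox fluorescence (360/485 nm) was monitored every 50 s for 45 min. Mix: JAK3 2.5 nM, Omnia Y7 peptide 10 μM, ATP 10 μM (Km app) or 1 mM, in HEPES pH 7.4 buffer with MgCl2, Triton X-100 and DTT.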

T2 sequence (P23458 whole entry): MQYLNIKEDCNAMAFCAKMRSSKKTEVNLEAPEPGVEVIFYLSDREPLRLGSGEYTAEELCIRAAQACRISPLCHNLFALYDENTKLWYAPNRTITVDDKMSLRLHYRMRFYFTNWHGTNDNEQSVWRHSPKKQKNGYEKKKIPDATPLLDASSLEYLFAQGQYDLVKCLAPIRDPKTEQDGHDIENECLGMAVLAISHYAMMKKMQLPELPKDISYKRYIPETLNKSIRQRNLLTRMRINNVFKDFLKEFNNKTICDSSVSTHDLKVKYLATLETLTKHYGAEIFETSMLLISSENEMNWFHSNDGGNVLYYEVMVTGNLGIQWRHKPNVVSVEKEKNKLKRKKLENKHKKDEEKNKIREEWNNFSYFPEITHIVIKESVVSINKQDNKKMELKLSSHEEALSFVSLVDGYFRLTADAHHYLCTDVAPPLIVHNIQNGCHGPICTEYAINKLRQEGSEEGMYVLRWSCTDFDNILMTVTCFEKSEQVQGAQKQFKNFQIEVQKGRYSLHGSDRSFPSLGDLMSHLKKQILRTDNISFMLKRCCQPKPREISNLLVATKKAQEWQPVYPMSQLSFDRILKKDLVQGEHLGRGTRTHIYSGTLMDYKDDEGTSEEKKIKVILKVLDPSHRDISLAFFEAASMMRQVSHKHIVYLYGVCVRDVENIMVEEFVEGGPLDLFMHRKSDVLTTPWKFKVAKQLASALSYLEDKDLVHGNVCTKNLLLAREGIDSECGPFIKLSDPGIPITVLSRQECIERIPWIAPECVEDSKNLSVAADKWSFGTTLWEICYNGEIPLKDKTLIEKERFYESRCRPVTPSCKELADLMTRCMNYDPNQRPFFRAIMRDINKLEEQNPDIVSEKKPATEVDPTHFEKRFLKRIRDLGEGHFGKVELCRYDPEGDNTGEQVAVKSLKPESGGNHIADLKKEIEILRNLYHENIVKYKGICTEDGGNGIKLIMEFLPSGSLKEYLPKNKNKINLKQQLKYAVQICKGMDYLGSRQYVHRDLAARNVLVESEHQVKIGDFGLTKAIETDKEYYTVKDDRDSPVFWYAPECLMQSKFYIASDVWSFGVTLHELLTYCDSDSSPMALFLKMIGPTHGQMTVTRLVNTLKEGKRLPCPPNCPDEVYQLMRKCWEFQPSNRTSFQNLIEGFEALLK
T3 sequence (O60674 whole entry): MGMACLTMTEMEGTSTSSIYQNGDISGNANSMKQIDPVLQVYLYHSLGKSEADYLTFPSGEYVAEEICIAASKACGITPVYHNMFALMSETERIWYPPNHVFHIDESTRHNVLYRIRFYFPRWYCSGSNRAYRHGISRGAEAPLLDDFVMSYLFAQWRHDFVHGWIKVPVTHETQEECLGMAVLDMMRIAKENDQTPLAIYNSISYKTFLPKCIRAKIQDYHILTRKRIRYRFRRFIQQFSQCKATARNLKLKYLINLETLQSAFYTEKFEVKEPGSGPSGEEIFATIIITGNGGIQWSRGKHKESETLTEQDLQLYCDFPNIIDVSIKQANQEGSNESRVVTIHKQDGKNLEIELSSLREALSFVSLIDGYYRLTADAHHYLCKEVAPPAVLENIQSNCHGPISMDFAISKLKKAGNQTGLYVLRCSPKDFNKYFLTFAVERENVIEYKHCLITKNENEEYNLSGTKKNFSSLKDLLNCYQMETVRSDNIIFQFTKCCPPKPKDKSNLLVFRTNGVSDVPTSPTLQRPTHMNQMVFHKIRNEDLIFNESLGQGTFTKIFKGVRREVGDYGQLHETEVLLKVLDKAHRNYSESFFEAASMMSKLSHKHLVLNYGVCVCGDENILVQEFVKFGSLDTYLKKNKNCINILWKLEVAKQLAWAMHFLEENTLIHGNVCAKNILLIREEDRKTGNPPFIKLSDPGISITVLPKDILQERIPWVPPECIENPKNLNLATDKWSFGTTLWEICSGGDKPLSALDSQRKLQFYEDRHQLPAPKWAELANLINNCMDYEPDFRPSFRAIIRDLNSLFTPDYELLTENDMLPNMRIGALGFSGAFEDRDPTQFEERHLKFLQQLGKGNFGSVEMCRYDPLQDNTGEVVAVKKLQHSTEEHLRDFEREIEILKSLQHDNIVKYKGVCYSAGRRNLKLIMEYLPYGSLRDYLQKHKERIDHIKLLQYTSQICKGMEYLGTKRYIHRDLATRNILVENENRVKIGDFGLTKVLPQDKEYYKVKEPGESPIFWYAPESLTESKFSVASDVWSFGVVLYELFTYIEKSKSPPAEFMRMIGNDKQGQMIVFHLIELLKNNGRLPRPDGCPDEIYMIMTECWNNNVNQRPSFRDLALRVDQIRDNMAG

`Cn1cc(-c2cc3nccn3c(-c3cnn([C@@H](CC=C(F)F)C4CC4)c3)n2)cn1` [Example 50, (S)-5-(1-(1-cyclopropyl-4,4-difluorobut-3-en-1-yl)-1H-pyrazol-4-yl)-7-(1-methyl-1H-pyrazol-4-yl)imidazo[1,2-c]pyrimidine]: the IC50 against Human Tyk2 kinase domain was under 10 nM; at JAK1, 10 to 100 nM; against JAK2, under 10 nM; against JAK3, 10 to 100 nM.
With `Cn1cc(-c2cc3nccn3c(-c3cnn(C4(CCF)CN(S(=O)(=O)C(F)F)C4)c3)n2)cn1` [Example 51], the IC50 against Human Tyk2 kinase domain was under 10 nM; on JAK1 it was 10 to 100 nM; on JAK2 it was 10 to 100 nM; at JAK3, 10 to 100 nM.
As to `Cn1cc(-c2cc3nccn3c(-c3cnn(C4(CCF)CCC4)c3)n2)cn1` [Example 52, 5-(1-(1-(2-fluoroethyl)cyclobutyl)-1H-pyrazol-4-yl)-7-(1-methyl-1H-pyrazol-4-yl)imidazo[1,2-c]pyrimidine], the IC50 against Human Tyk2 kinase domain fell in the range of 10 to 100 nM; on JAK1 it was 100 to 1000 nM; at JAK2, 100 to 1000 nM; against JAK3, 100 to 1000 nM.
Take `COCCC1(n2cc(-c3nc(-c4cnn(C)c4)cc4nccn34)cn2)CCC1` [Example 53, 5-(1-(1-(2-methoxyethyl)cyclobutyl)-1H-pyrazol-4-yl)-7-(1-methyl-1H-pyrazol-4-yl)imidazo[1,2-c]pyrimidine]: the IC50 at Human Tyk2 kinase domain was 100 to 1000 nM; at JAK1 it was over 1000 nM; on JAK2 it was 100 to 1000 nM; on JAK3, 100 to 1000 nM.
For the compound `Cn1cc(-c2cc3nccn3c(-c3cnn(C(CC=C(F)F)C4CC4)c3)n2)cn1` (stereo not drawn) [Example 54, 5-(1-(1-cyclopropyl-4,4-difluorobut-3-en-1-yl)-1H-pyrazol-4-yl)-7-(1-methyl-1H-pyrazol-4-yl)imidazo[1,2-c]pyrimidine], the IC50 at Human Tyk2 kinase domain is under 10 nM; on JAK1, 10 to 100 nM; at JAK2 it was 10 to 100 nM; at JAK3 it was 10 to 100 nM.
For the compound `C#CCC(C1CC1)n1cc(-c2nc(-c3cnn(C)c3)cc3nccn23)cn1` (stereo not drawn) [Example 55, 5-(1-(1-cyclopropylbut-3-yn-1-yl)-1H-pyrazol-4-yl)-7-(1-methyl-1H-pyrazol-4-yl)imidazo[1,2-c]pyrimidine], the IC50 on Human Tyk2 kinase domain was under 10 nM; against JAK1, 100 to 1000 nM; at JAK2, 10 to 100 nM; against JAK3 it was 100 to 1000 nM.
`Cn1cc(-c2cc3nccn3c(-c3cnn(C4(CCO)CCC4)c3)n2)cn1` [Example 56, 2-(1-(4-(7-(1-methyl-1H-pyrazol-4-yl)imidazo[1,2-c]pyrimidin-5-yl)-1H-pyrazol-1-yl)cyclobutyl)ethanol]: the IC50 on Human Tyk2 kinase domain is 100 to 1000 nM; on JAK1, over 1000 nM; against JAK2, over 1000 nM; against JAK3, over 1000 nM.
As for `CCC(CCF)n1cc(-c2nc(-c3cnn(C)c3)cc3nccn23)cn1` (stereo not drawn) [Example 57, 5-(1-(1-fluoropentan-3-yl)-1H-pyrazol-4-yl)-7-(1-methyl-1H-pyrazol-4-yl)imidazo[1,2-c]pyrimidine], the IC50 lay in the range of 10 to 100 nM on Human Tyk2 kinase domain, 100 to 1000 nM at JAK1, 100 to 1000 nM on JAK2 and 100 to 1000 nM at JAK3.
For `Cc1cc(-c2cc3nccn3c(-c3cnn(C4(CCF)CN(S(=O)(=O)C(F)(F)F)C4)c3)n2)[nH]n1` [Example 58, 5-(1-(3-(2-fluoroethyl)-1-((trifluoromethyl)sulfonyl)azetidin-3-yl)-1H-pyrazol-4-yl)-7-(3-methyl-1H-pyrazol-5-yl)imidazo[1,2-c]pyrimidine], the IC50 at Human Tyk2 kinase domain is under 10 nM; on JAK1, 100 to 1000 nM; against JAK2 it was 10 to 100 nM; on JAK3 it was 100 to 1000 nM.
In the case of `CO[C@H](C)Cn1cc(-c2cc3nccn3c(-c3cnn(C4(CCF)CN(S(=O)(=O)C(F)(F)F)C4)c3)n2)cn1` [Example 59, (R)-5-(1-(3-(2-fluoroethyl)-1-((trifluoromethyl)sulfonyl)azetidin-3-yl)-1H-pyrazol-4-yl)-7-(1-(2-methoxypropyl)-1H-pyrazol-4-yl)imidazo[1,2-c]pyrimidine], the IC50 on Human Tyk2 kinase domain was under 10 nM; against JAK1 it was 100 to 1000 nM; against JAK2, 10 to 100 nM; against JAK3, 100 to 1000 nM.
Consider `O=S(=O)(N1CC(CCF)(n2cc(-c3nc(-c4cnn(C5CCOCC5)c4)cc4nccn34)cn2)C1)C(F)(F)F` [Example 60, 5-(1-(3-(2-fluoroethyl)-1-((trifluoromethyl)sulfonyl)azetidin-3-yl)-1H-pyrazol-4-yl)-7-(1-(tetrahydro-2H-pyran-4-yl)-1H-pyrazol-4-yl)imidazo[1,2-c]pyrimidine], for which the IC50 is under 10 nM at Human Tyk2 kinase domain, 10 to 100 nM against JAK1, under 10 nM against JAK2 and 100 to 1000 nM on JAK3.
For `CC(=O)CC(C1CC1)n1cc(-c2nc(-c3cnn(C)c3)cc3nccn23)cn1` (stereo not drawn) [Example 61, 4-cyclopropyl-4-(4-(7-(1-methyl-1H-pyrazol-4-yl)imidazo[1,2-c]pyrimidin-5-yl)-1H-pyrazol-1-yl)butan-2-one], the IC50 at Human Tyk2 kinase domain was 100 to 1000 nM; against JAK1, over 1000 nM; on JAK2, 100 to 1000 nM; against JAK3, over 1000 nM.
For `CSCCC(C1CC1)n1cc(-c2nc(-c3cnn(C)c3)cc3nccn23)cn1` (stereo not drawn) [Example 62, 5-(1-(1-cyclopropyl-3-(methylthio)propyl)-1H-pyrazol-4-yl)-7-(1-methyl-1H-pyrazol-4-yl)imidazo[1,2-c]pyrimidine], the IC50 against Human Tyk2 kinase domain fell in the range of 10 to 100 nM; against JAK1, 100 to 1000 nM; at JAK2, 10 to 100 nM; on JAK3 it was 100 to 1000 nM.
Turning to `Cn1cc(-c2cc3nccn3c(-c3cnn(C(CC(N)=O)C4CC4)c3)n2)cn1` (stereo not drawn) [Example 63, 3-cyclopropyl-3-(4-(7-(1-methyl-1H-pyrazol-4-yl)imidazo[1,2-c]pyrimidin-5-yl)-1H-pyrazol-1-yl)propanamide], the IC50 against Human Tyk2 kinase domain was 100 to 1000 nM; against JAK1, over 1000 nM; at JAK2, 100 to 1000 nM; against JAK3, over 1000 nM.
In the case of `Cn1cc(-c2cc3nccn3c(-c3cnn(C4(CCF)CN(S(C)(=O)=O)C4)c3)n2)cn1` [Example 64, 5-(1-(3-(2-fluoroethyl)-1-(methylsulfonyl)azetidin-3-yl)-1H-pyrazol-4-yl)-7-(1-methyl-1H-pyrazol-4-yl)imidazo[1,2-c]pyrimidine], the concentration for half-maximal inhibition (IC50) was in the range of 10 to 100 nM at Human Tyk2 kinase domain, 100 to 1000 nM at JAK1, 10 to 100 nM at JAK2 and 100 to 1000 nM against JAK3.
